In patent US5750530A, “Pharmaceutical diketopiperazine compounds” (Xenova Limited, priority 1994, dated 1998):
Where a name gives a salt, the structure may show the parent alone.

Target: PAI-1 (Homo sapiens, UniProt P05121)
Experiment: biochemical
Type: biochemical
Settings: for IC50: PAI chromogenic substrate assay
Protocol: The present compounds have been tested in a PAI functional assay. In this assay, a compound is incubated with PAI-1 prior to addition to the tPA assay system. Inhibition of PAI-1 results in the production of plasmin from plasminogen. In turn, plasmin cleaves the chromogenic substrate S2251 (Kabi Vitrum) producing pNA (p-nitroaniline) which is detected spectrophotometrically at 405 nm (K. Nilsson et al, Fibrinolysis (1987) 1, 163-168).
The present compounds were tested in a PAI chromogenic substrate assay. In the assay (K. Nilsson, Fibrinolysis (1987) 1, 163-168) each compound was incubated with PAI-1 prior to addition to the tPA assay system. […] In turn, the plasmin cleaved the chromogenic substrate S2251 (Kabi-Vitrum) producing pNA (p-nitroaniline) which was detected spectrophotometrically at 405 nm.
The degrees of inhibition observed in the chromogenic substrate assay at various concentrations, or the IC50 values, for each compound are presented in Table 1.

Chain of PAI-1 (P05121 24-402): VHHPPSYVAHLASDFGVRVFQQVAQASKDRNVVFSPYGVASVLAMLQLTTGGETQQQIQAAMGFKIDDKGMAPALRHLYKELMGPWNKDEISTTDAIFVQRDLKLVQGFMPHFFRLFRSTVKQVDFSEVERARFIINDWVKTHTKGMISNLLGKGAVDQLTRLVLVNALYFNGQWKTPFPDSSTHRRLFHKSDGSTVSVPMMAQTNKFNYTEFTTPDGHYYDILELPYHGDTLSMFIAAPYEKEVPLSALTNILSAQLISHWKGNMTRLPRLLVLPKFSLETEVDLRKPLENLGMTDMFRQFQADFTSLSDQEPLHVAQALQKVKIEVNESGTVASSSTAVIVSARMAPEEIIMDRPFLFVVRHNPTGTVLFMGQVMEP

Compound | IC50 | % Inhibition (20 μm) | % Inhibition (5 μm)
CN(C)CCSc1ccc(/C=c2\[nH]c(=O)/c(=C/c3ccccc3Br)[nH]c2=O)s1 [Compound 5313.HCl, (3Z,6Z)-6-(2-Bromobenzylidene)-3-(5-(2-dimethylaminoethylthio)-2-thienyl)methylene-2,5-piperazinedione] | 20 µM |  | 
COc1cccc(/C=c2\[nH]c(=O)/c(=C/c3ccc(SCCN(C)C)s3)[nH]c2=O)c1 [Compound 5314, (3Z,6Z)-3-(5-(2-Dimethylaminoethylthio)-2-thienyl)methylene-6-(3-methoxybenzylidene)-2,5-piperazinedione] | 3.5 µM |  | 
COc1cccc(/C=c2\[nH]c(=O)/c(=C/c3ccc(SCCN(C)C)s3)[nH]c2=O)c1 [Compound 5314.HCl, (3Z,6Z)-3-(5-(2-Dimethylaminoethylthio)-2-thienyl)methylene-6-(3-methoxybenzylidene)-2,5-piperazinedione] | 9.5 µM |  | 
CN(C)CCSc1ccc(/C=c2\[nH]c(=O)/c(=C/c3cccc(C(F)(F)F)c3)[nH]c2=O)s1 [Compound 5315, (3Z,6Z)-3-(5-(2-Dimethylaminoethylthio)-2-thienyl)methylene-6-(3-trifluoromethylbenzylidene)-2,5-piperazinedione] | 20 µM |  | 
CN(C)CCSc1ccc(/C=c2\[nH]c(=O)/c(=C/c3cccc(C(F)(F)F)c3)[nH]c2=O)s1 [Compound 5315.HCl, (3Z,6Z)-3-(5-(2-Dimethylaminoethylthio)-2-thienyl)methylene-6-(3-trifluoromethylbenzylidene)-2,5-piperazinedione] |  | 10% | 
CN(C)CCSc1ccc(/C=c2\[nH]c(=O)/c(=C/c3cccc([N+](=O)[O-])c3)[nH]c2=O)s1 [Compound 5316, (3Z,6Z)-3-(5-(2-Dimethylaminoethylthio)-2-thienyl)methylene-6-(3-nitrobenzylidene)-2,5-piperazinedione] |  | 10% | 
CC(C)N(CCSc1ccc(/C=c2\[nH]c(=O)/c(=C/c3ccccc3)[nH]c2=O)s1)C(C)C [Compound 5399, (3Z,6Z)-6-Benzylidene-3-(5-(2-diisopropylaminoethylthio)-2-thienyl)methylene-2,5-piperazinedione] |  | 43% | 23%
CC(C)N(CCSc1ccc(/C=c2\[nH]c(=O)/c(=C/c3ccccc3)[nH]c2=O)s1)C(C)C [Compound 5399.HCl, (3Z,6Z)-6-Benzylidene-3-(5-(2-diisopropylaminoethylthio)-2-thienyl)methylene-2,5-piperazinedione] |  | 31% | 18%
CN(C)CCSc1ccc(/C=c2\[nH]c(=O)/c(=C/c3ccccc3)[nH]c2=O)cc1[N+](=O)[O-] [Compound 5400, (3Z,6Z)-6-Benzylidene-3-(4-(2-dimethylaminoethylthio)-3-nitrobenzylidene)-2,5-piperazinedione] | 4.5 µM | 60% | 61%
CN(C)CCSc1sc(/C=c2\[nH]c(=O)/c(=C/c3ccccc3)[nH]c2=O)cc1[N+](=O)[O-] [Compound 5403, (3Z,6Z)-6-Benzylidene-3-(5-(2-dimethylaminoethylthio)-4-nitro-2-thienyl)methylene-2,5-piperazinedione] | 20 µM | 52% | 26%
CN(C)CCSc1sc(/C=c2\[nH]c(=O)/c(=C/c3ccccc3)[nH]c2=O)cc1[N+](=O)[O-] [Compound 5403.HCl, (3Z,6Z)-6-Benzylidene-3-(5-(2-dimethylaminoethylthio)-4-nitro-2-thienyl)methylene-2,5-piperazinedione] |  | 60% | 12%
CN(C)CCSc1ccc(/C=c2\[nH]c(=O)/c(=C/c3cccc([N+](=O)[O-])c3)[nH]c2=O)cc1 [Compound 5422, (3Z,6Z)-6-(4-(2-Dimethylaminoethylthio)benzylidene)-3-(3-nitrobenzylidene)-2,5-piperazinedione] |  | 21% | 3%
CN(C)CCSc1ccc(/C=c2\[nH]c(=O)/c(=C/c3cccc([N+](=O)[O-])c3)[nH]c2=O)cc1 [Compound 5422.HCl, (3Z,6Z)-6-(4-(2-Dimethylaminoethylthio)benzylidene)-3-(3-nitrobenzylidene)-2,5-piperazinedione] |  | 28% | 5%
CN(C)CCSc1ccc(/C=c2\[nH]c(=O)/c(=C/c3cccc(C(F)(F)F)c3)[nH]c2=O)cc1 [Compound 5423, (3Z,6Z)-6-(4-(2-Dimethylaminoethylthio)benzylidene)-3-(3-trifluoromethylbenzylidene)-2,5-piperazinedione] |  | 11% | 
CN(C)CCSc1ccc(/C=c2\[nH]c(=O)/c(=C/c3cccc(C(F)(F)F)c3)[nH]c2=O)cc1 [Compound 5423.HCl, (3Z,6Z)-6-(4-(2-Dimethylaminoethylthio)benzylidene)-3-(3-trifluoromethylbenzylidene)-2,5-piperazinedione] | 20 µM | 35% | 2%
CN(C)CCSc1ccc(/C=c2\[nH]c(=O)/c(=C/c3ccc(N(C)C)cc3)[nH]c2=O)cc1 [Compound 5424, (3Z,6Z)-3-(4-Dimethylaminobenzylidene)-6-(4-(2-dimethylaminoethylthio)benzylidene)-2,5-piperazinedione] | 13.7 µM | 23% | 6%
CN(C)CCSc1ccc(/C=c2\[nH]c(=O)/c(=C/c3ccc(N(C)C)cc3)[nH]c2=O)cc1 [Compound 5424.HCl, (3Z,6Z)-3-(4-Dimethylaminobenzylidene)-6-(4-(2-dimethylaminoethylthio)benzylidene)-2,5-piperazinedione] | 15.7 µM | 45% | 8%
CN(C)CCSc1ccc(/C=c2\[nH]c(=O)/c(=C/c3cccc(Br)c3)[nH]c2=O)cc1 [Compound 5425, (3Z,6Z)-3-(3-Bromobenzylidene)-6-(4-(2-dimethylaminoethylthio)benzylidene)-2,5-piperazinedione] | 3.7 µM | 57% | 37%
CN(C)CCSc1ccc(/C=c2\[nH]c(=O)/c(=C/c3cccc(Br)c3)[nH]c2=O)cc1 [Compound 5425.HCl, (3Z,6Z)-3-(3-Bromobenzylidene)-6-(4-(2-dimethylaminoethylthio)benzylidene)-2,5-piperazinedione] | 2.2 µM | 47% | 56%
CSc1ccc(/C=c2\[nH]c(=O)/c(=C/c3ccc(SCCN(C)C)cc3)[nH]c2=O)cc1 [Compound 5426, (3Z,6Z)-3-(4-(2-Dimethylaminoethylthio)benzylidene)-6-(4-methylthiobenzyidene)-2,5-piperazinedione] | 5.7 µM | 52% | 25%
CSc1ccc(/C=c2\[nH]c(=O)/c(=C/c3ccc(SCCN(C)C)cc3)[nH]c2=O)cc1 [Compound 5426.HCl, (3Z,6Z)-3-(4-(2-Dimethylaminoethylthio)benzylidene)-6-(4-methylthiobenzyidene)-2,5-piperazinedione] | 5.4 µM | 55% | 35%
CN(C)CCSc1ccc(/C=c2\[nH]c(=O)/c(=C/c3ccc(Cl)cc3)[nH]c2=O)cc1 [Compound 5437, (3Z,6Z)-3-(4-Chlorobenzylidene)-6-(4-(2-dimethylaminoethylthio)benzylidene)-2,5-piperazinedione] | 20 µM | 41% | 8%
CN(C)CCSc1ccc(/C=c2\[nH]c(=O)/c(=C/c3ccc(Cl)cc3)[nH]c2=O)cc1 [Compound 5437.HCl, (3Z,6Z)-3-(4-Chlorobenzylidene)-6-(4-(2-dimethylaminoethylthio)benzylidene)-2,5-piperazinedione] | 16.5 µM | 44% | 18%
COc1cccc(/C=c2\[nH]c(=O)/c(=C/c3ccc(SCCN(C)C)cc3)[nH]c2=O)c1 [Compound 5438, (3Z,6Z)-6-(4-(2-Dimethylaminoethylthio)benzylidene)-3-(3-methoxybenzylidene)-2,5-piperazinedione] |  | 18% | 
COc1cccc(/C=c2\[nH]c(=O)/c(=C/c3ccc(SCCN(C)C)cc3)[nH]c2=O)c1 [Compound 5438.HCl, (3Z,6Z)-6-(4-(2-Dimethylaminoethylthio)benzylidene)-3-(3-methoxybenzylidene)-2,5-piperazinedione] |  |  | 3%
Cc1cccc(/C=c2\[nH]c(=O)/c(=C/c3ccc(SCCN(C)C)cc3)[nH]c2=O)c1 [Compound 5439, (3Z,6Z)-6-(4-(2-Dimethylaminoethylthio)benzylidene)-3-(3-methylbenzylidene)-2,5-piperazinedione] | 15 µM | 46% | 5%
Cc1cccc(/C=c2\[nH]c(=O)/c(=C/c3ccc(SCCN(C)C)cc3)[nH]c2=O)c1 [Compound 5439.HCl, (3Z,6Z)-6-(4-(2-Dimethylaminoethylthio)benzylidene)-3-(3-methylbenzylidene)-2,5-piperazinedione] | 17 µM | 35% | 6%
CN(C)CCSc1ccc(/C=c2\[nH]c(=O)/c(=C/c3ccc(C(C)(C)C)cc3)[nH]c2=O)cc1 [Compound 5440, (3Z,6Z)-3-(4-(2-Dimethylaminoethylthio)benzylidene)-6-(4-tert-butylbenzylidene)-2,5-piperazinedione] |  | 30% | 11%
